# Data from ChEMBL document CHEMBL5325474, “Di-indenopyridines as topoisomerase II-selective anticancer agents: Design, synthesis, and structure-activity relationships” (Bioorg Med Chem, 2023).
# Activity calls are given as the source filed them. The calls are words filed in the database; no cut-off is given here.
# Assays:
# [1] = biological target: DNA topoisomerase 2-alpha (Homo sapiens) (UniProt P11388); experiment: Inhibition of human DNA topoisomerase 2 alpha at 100 uM using supercoiled pBR322 DNA as substrate incubated for 30 mins by EtBr staining based agarose gel electrophoresis method relative to control
# DNA topoisomerase 2-alpha (Homo sapiens), sequence (P11388 whole entry): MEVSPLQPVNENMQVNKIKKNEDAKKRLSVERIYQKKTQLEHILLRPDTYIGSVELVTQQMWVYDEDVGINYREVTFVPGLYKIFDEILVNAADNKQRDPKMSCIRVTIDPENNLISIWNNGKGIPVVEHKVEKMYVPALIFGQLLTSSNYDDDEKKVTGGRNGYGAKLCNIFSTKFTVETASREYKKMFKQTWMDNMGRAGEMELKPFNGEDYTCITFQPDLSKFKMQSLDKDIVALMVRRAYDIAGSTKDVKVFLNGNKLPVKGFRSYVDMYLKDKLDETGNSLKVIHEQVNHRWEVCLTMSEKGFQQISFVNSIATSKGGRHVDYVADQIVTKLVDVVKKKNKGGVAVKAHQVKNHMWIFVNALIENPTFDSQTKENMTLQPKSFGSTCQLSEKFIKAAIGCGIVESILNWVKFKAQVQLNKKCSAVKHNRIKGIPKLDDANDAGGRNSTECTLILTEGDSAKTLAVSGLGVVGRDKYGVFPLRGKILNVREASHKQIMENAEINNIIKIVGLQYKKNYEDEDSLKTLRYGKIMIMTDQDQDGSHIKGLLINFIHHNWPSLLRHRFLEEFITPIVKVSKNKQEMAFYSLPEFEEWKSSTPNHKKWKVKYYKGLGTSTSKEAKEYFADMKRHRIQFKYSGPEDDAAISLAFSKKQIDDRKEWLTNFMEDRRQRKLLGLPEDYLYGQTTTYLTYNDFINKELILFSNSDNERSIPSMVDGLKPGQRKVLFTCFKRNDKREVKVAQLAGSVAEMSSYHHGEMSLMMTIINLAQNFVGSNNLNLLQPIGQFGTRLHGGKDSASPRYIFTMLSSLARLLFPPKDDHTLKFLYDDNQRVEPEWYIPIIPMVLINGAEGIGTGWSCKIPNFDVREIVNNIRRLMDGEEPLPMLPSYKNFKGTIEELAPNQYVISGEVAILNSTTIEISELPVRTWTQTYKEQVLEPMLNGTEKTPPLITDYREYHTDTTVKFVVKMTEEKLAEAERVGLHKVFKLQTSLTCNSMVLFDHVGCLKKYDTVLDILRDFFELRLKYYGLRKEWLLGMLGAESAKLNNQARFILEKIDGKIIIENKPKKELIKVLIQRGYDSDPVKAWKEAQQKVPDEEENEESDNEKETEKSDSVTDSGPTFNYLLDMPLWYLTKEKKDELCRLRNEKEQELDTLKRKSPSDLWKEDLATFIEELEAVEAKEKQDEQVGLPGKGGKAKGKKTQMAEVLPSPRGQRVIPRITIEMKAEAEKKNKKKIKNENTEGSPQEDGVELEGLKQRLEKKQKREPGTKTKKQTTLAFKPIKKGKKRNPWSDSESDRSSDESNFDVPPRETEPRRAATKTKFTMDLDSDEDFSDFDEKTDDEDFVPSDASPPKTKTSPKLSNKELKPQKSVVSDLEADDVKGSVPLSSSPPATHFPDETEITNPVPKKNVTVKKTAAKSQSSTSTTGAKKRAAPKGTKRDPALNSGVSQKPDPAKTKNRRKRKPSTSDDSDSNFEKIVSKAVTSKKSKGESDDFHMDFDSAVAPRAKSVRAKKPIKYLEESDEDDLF
# HeLa = experiment: Antiproliferative activity against human HeLa cells incubated for 72 hrs by microplate reader analysis; assay type: functional, cell-based
# DU-145 = experiment: Antiproliferative activity against human DU-145 cells incubated for 72 hrs by microplate reader analysis; assay type: functional, cell-based; details: DU-145, 72 h
# HCT-15 = experiment: Antiproliferative activity against human HCT-15 cells incubated for 72 hrs by microplate reader analysis; assay type: functional, cell-based; details: HCT-15, 72 h
# T47D = experiment: Antiproliferative activity against human T47D cells incubated for 72 hrs by microplate reader analysis; assay type: functional, cell-based
# Calf thymus DNA = experiment: Displacement of EtBr from calf thymus DNA assessed as reduction in fluorescence intensity at 5 to 40 uM preincubated with EtBr for 30 mins followed by compound addition and measured after 30 mins by microplate reader analysis; assay type: nucleic-acid assay; details: Bos taurus, dose 5-40 µM
# [2] = biological target: DNA topoisomerase 2-alpha (Homo sapiens) (UniProt P11388); experiment: Inhibition of human DNA topoisomerase 2 alpha at 20 uM using supercoiled pBR322 DNA as substrate incubated for 30 mins by EtBr staining based agarose gel electrophoresis method relative to control
# [3] = biological target: T1, DNA topoisomerase 1 (Homo sapiens) (UniProt P11387); experiment: Inhibition of human DNA topoisomerase 1 at 100 uM using supercoiled pBR322 DNA as substrate incubated for 30 mins by EtBr staining based agarose gel electrophoresis method relative to control
# T1 sequence (whole entry): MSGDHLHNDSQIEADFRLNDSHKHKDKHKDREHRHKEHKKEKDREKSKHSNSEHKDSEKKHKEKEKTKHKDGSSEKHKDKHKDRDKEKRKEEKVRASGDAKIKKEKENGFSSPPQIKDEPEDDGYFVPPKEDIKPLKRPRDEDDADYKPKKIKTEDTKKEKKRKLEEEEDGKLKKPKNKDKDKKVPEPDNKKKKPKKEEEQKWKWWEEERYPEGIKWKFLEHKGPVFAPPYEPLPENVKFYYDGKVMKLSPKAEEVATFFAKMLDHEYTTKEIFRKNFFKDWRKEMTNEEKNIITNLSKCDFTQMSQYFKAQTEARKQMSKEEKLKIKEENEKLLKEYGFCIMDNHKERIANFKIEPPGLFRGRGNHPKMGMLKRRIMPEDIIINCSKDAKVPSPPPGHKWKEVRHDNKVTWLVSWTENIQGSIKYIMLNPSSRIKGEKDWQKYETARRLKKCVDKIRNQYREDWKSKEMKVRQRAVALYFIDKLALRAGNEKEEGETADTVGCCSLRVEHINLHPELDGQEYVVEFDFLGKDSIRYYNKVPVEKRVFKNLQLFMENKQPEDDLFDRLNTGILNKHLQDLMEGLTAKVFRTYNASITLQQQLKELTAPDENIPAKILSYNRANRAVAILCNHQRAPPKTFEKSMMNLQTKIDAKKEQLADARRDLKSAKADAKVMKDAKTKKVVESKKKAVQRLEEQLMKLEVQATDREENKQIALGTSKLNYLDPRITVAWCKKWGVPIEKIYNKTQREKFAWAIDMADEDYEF
# [4] = biological target: DNA topoisomerase 2-alpha (Homo sapiens) (UniProt P11388); experiment: Poison activity at topoisomerase 2 alpha in human HCT-15 cells at 20 uM incubated for 24 hrs by alkaline comet assay; assay type: cell-based
# [5] = biological target: DNA topoisomerase 2-alpha (Homo sapiens) (UniProt P11388); experiment: Catalytic inhibition of human DNA topoisomerase 2 alpha expressed in baculovirus infected insect cells assessed as reduction in linear DNA formation at 200 to 500 uM using supercoiled pBR322 DNA as substrate incubated for 30 mins by agarose gel electrophoresis; details: dose 200-500 µM
Structure (SMILES),inhibition [1],IC50 (HeLa),IC50 (DU-145),IC50 (HCT-15),IC50 (T47D),Activity (Calf thymus DNA),inhibition [2],inhibition [3],inhibition [5],Activity [4]
COc1cc(NS(C)(=O)=O)ccc1Nc1c2ccccc2nc2ccccc12,,,,,,Active,,,,
Oc1cccc(-c2c3c(nc4c2Cc2ccc(O)cc2-4)-c2cc(O)ccc2C3)c1,22.5%,> 50 µM,> 50 µM,> 50 µM,> 50 µM,,,,,
Oc1ccc2c(c1)Cc1c-2nc2c(c1-c1cccc(Cl)c1)Cc1cc(O)ccc1-2,91.4%,> 50 µM,> 50 µM,> 50 µM,> 50 µM,,3.5%,-0%,,
Oc1cccc(-c2c3c(nc4c2Cc2cc(O)ccc2-4)-c2ccc(O)cc2C3)c1,56.8%,> 50 µM,> 50 µM,> 50 µM,> 50 µM,,40.8%,,,
Oc1cccc(-c2c3c(nc4c2Cc2c(O)cccc2-4)-c2cccc(O)c2C3)c1,21.2%,> 50 µM,> 50 µM,> 50 µM,> 50 µM,,,-0%,,
Oc1ccc2c(c1)-c1nc3c(c(-c4ccc(C(F)(F)F)cc4)c1C2)Cc1ccc(O)cc1-3,0.1%,10.5 µM,5.84 µM,9.06 µM,5.8 µM,,,-0%,,
Oc1ccc2c(c1)Cc1c-2nc2c(c1-c1cccc(F)c1)Cc1cc(O)ccc1-2,96.5%,> 50 µM,> 50 µM,> 50 µM,> 50 µM,,3.2%,-0%,,
c1ccc(-c2c3c(nc4c2Cc2ccccc2-4)-c2ccccc2C3)cc1,2.6%,> 50 µM,> 50 µM,> 50 µM,> 50 µM,,,-0%,,
Oc1ccc(-c2c3c(nc4c2Cc2c(F)cccc2-4)-c2cccc(F)c2C3)cc1,41.5%,> 50 µM,> 50 µM,> 50 µM,> 50 µM,,2.5%,-0%,,
Oc1cccc2c1-c1nc3c(c(-c4ccsc4)c1C2)Cc1cccc(O)c1-3,13.4%,> 50 µM,> 50 µM,> 50 µM,> 50 µM,,,-0%,,
Oc1ccc(-c2c3c(nc4c2Cc2ccc(C(F)(F)F)cc2-4)-c2cc(C(F)(F)F)ccc2C3)cc1,51.4%,> 50 µM,2.57 µM,> 50 µM,> 50 µM,,4.5%,7.1%,,
CC[C@@]1(O)C(=O)OCc2c1cc1n(c2=O)Cc2cc3ccccc3nc2-1 [CAMPTOTHECIN],,,0.61 µM,,,,,,,
Oc1cccc2c1Cc1c-2nc2c(c1-c1ccco1)Cc1c(O)cccc1-2,100%,9.63 µM,5.23 µM,1.71 µM,4.16 µM,inactive,100%,-0%,Active,inactive
Oc1ccc(-c2c3c(nc4c2Cc2cc(O)ccc2-4)-c2ccc(O)cc2C3)cc1,73.1%,> 50 µM,> 50 µM,> 50 µM,6.38 µM,,55.7%,,,
Oc1ccc2c(c1)Cc1c-2nc2c(c1-c1ccccc1O)Cc1cc(O)ccc1-2,93.3%,22.5 µM,31.4 µM,46.1 µM,> 50 µM,,7.5%,,,
Oc1ccc(-c2c3c(nc4c2Cc2ccc(O)cc2-4)-c2cc(O)ccc2C3)cc1,84.2%,20.4 µM,> 50 µM,27.8 µM,5.24 µM,,78%,,,

# The next lines start with results.
inhibition [1],IC50 (HeLa),IC50 (DU-145),IC50 (HCT-15),IC50 (T47D),Activity (Calf thymus DNA),inhibition [2],inhibition [3],inhibition [5],Structure (SMILES),Activity [4]
-0%,1.56 µM,1.81 µM,4.84 µM,3.82 µM,,,,,Oc1ccccc1-c1c2c(nc3c1Cc1cccc(O)c1-3)-c1c(O)cccc1C2,
,1.68 µM,5.53 µM,3.53 µM,2.53 µM,,,,,COc1cccc2c1C(=O)c1c(O)c3c(c(O)c1C2=O)C[C@@](O)(C(=O)CO)C[C@@H]3O[C@H]1C[C@H](N)[C@H](O)[C@H](C)O1 [DOXORUBICIN],
77.1%,2.1 µM,> 50 µM,8.69 µM,5.3 µM,,41.8%,,,Oc1ccccc1-c1c2c(nc3c1Cc1c(O)cccc1-3)-c1cccc(O)c1C2,
43.6%,2.96 µM,0.89 µM,0.95 µM,4.33 µM,,31.7%,,,Oc1ccc(-c2c3c(nc4c2Cc2cccc(O)c2-4)-c2c(O)cccc2C3)cc1,
26%,0.87 µM,2.58 µM,0.96 µM,6.84 µM,,,,,Oc1cccc(-c2c3c(nc4c2Cc2cccc(O)c2-4)-c2c(O)cccc2C3)c1,
13.9%,0.94 µM,5.03 µM,4.89 µM,3.34 µM,,,,,Oc1ccc(-c2c3c(nc4c2Cc2c(O)cccc2-4)-c2cccc(O)c2C3)cc1,
59.5%,0.93 µM,0.96 µM,0.45 µM,0.17 µM,,4.7%,0.4%,,Oc1ccc2c(c1)-c1nc3c(c(-c4cccs4)c1C2)Cc1ccc(O)cc1-3,
90.3%,5.39 µM,7.86 µM,3.86 µM,8.86 µM,,65.9%,,,Oc1ccc2c(c1)-c1nc3c(c(-c4ccccc4O)c1C2)Cc1ccc(O)cc1-3,
100%,0.59 µM,3.66 µM,1.51 µM,1.12 µM,,1.6%,-0%,,Oc1cccc2c1Cc1c-2nc2c(c1-c1ccccc1)Cc1c(O)cccc1-2,
84.8%,3.23 µM,0.87 µM,0.93 µM,0.05 µM,,1.6%,-0%,,Oc1cccc2c1-c1nc3c(c(-c4ccccc4OC(F)(F)F)c1C2)Cc1cccc(O)c1-3,
,3.38 µM,9.87 µM,1.97 µM,0.97 µM,,,,,COc1cc([C@@H]2c3cc4c(cc3[C@@H](O[C@@H]3O[C@@H]5CO[C@@H](C)O[C@H]5[C@H](O)[C@H]3O)[C@H]3COC(=O)[C@H]23)OCO4)cc(OC)c1O [ETOPOSIDE],
